This is an account of results in the supplement of paper PMC5579334.

SMILES strings stand for the structures.

The subject of one test is S462. Nature of the test: relative IC50 (inflection point of fitted dose-response curve, CellTiter-Glo viability, 72 h; top asymptote may be below 50% inhibition); higher = less potent. A digest of the protocol:
(§1)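 MPNST cell lines and primary human Schwann cells (750–1000 cells per well) went into 384-well plates preprinted with each compound at five concentrations in 10-fold steps. Plates were incubated 72 h at 37 °C, 5% CO2. Viability was read as CellTiter-Glo ATP luminescence, scaled between vehicle and positive-control wells, with duplicates averaged where present. Percent inhibition is at the top concentration; drug sensitivity score and relative IC50 (censored at top concentration) come from four-parameter logistic fits.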

In test [1] the test system is HSC1. The test is described as above. The essentials: as §1
In test [2] the test system is STS26T. The test is described as above. A digest of the protocol:
as §1

The test system of test [3] is S1507-2. Described as above. A digest of the protocol: as §1
The subject of test [4] is ST8814. Described as above. A digest of the protocol: as §1
Test [5] concerns HSC2. The description is as above. The essentials:
as §1

Test [6] concerns HSC1. In words: relative IC50 (inflection point of fitted dose-response curve, CellTox-Green cytotoxicity, 72 h; top asymptote may be below 50%); higher = less potent. A digest of the protocol:
(§2)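 MPNST cell lines and primary human Schwann cells were incubated 72 h at 37 °C in 384-well plates holding five 10-fold compound dilutions. CellTox-Green was added before seeding at a final 1:1000 dilution and reported fluorescence from DNA released by disrupted cells. Signals were scaled to vehicle and positive-control wells, and cultures failing plate quality control were dropped. Drug sensitivity score and relative IC50 come from four-parameter logistic fits, with IC50 censored at the top concentration.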

Test [7] concerns STS26T. Described as above. A digest of the protocol:
as §2

Test [8] concerns S1507-2. The description is as above. A digest of the protocol: as §2
The subject of test [9] is HS-PSS. The description is as above. The essentials:
as §2

Test [10] relates to ST8814. The description is as above. The essentials:
as §2

Another test deals with YST-1. Nature of the test: relative IC50 (inflection point of fitted dose-response curve, CellTiter-Glo viability, 72 h; top asymptote may be below 50% inhibition); higher = less potent. The essentials:
as §1

For test [11], the system named is HS-PSS. The description is as above. The essentials:
as §1

The next test concerns HS-Sch-2. Described as above. The essentials: as §1
The test system of test [12] is HSC2. Nature of the test: relative IC50 (inflection point of fitted dose-response curve, CellTox-Green cytotoxicity, 72 h; top asymptote may be below 50%); higher = less potent. The essentials: as §2

One may read the relative IC50 as the concentration halfway between the upper and lower plateau of the fitted curve. In the case of `Cc1cn(-c2cc(NC(=O)c3ccc(C)c(Nc4nccc(-c5cccnc5)n4)c3)cc(C(F)(F)F)c2)cn1` [Nilotinib], the “relative IC50” value in the test with S462, in the test with HSC1 [1], with STS26T [2], in the test on S1507-2 [3], in the test with ST8814 [4] and with HSC2 [5] was greater than 10000 nM in each case. In addition, the “relative IC50” value with HSC1 [6], with STS26T [7], with S1507-2 [8], in the test on HS-PSS [9] and in the test on ST8814 [10] was greater than 10000 nM throughout.
With `C=CCc1cccc(/C=N/NC(=O)CN2CCN(Cc3ccccc3)CC2)c1O` [PAC-1], the “relative IC50” value in the test with S462 was determined as 3490 nM; with YST-1 it was 2430 nM; in the test on HSC1 [1] it was 1890 nM; with STS26T [2], 2530 nM; in the test with S1507-2 [3], 3660 nM; in the test with HS-PSS [11], 2320 nM. Moreover, the “relative IC50” value in the test with ST8814 [4] was 2920 nM; in the test with HS-Sch-2, 1130 nM; with HSC2 [5], 1370 nM; with HSC1 [6] it was greater than 10000 nM; in the test on STS26T [7], greater than 10000 nM; with S1507-2 [8], greater than 10000 nM. For the same compound, the results for the “relative IC50” value in the test with HS-PSS [9] and with HSC2 [12] were 2020 nM and greater than 10000 nM, respectively.
Regarding `CN(C)C[C@@H]1CCn2cc(c3ccccc32)C2=C(C(=O)NC2=O)c2cn(c3ccccc23)CCO1` [Ruboxistaurin], the “relative IC50” value in the test with S462 was determined as 2080 nM; with YST-1 it was 1360 nM; in the test with HSC1 [1], 3290 nM; in the test with STS26T [2], 2980 nM; in the test with S1507-2 [3], 2170 nM; with HS-PSS [11] it was 2890 nM. Besides, the “relative IC50” value in the test on ST8814 [4] was 1200 nM; in the test with HS-Sch-2, 3420 nM; in the test on HSC2 [5], 1970 nM; with HSC1 [6], 2060 nM; in the test on STS26T [7], 2420 nM; in the test on S1507-2 [8], 2960 nM. Besides, the “relative IC50” value with HS-PSS [9] stood at 3670 nM; with HSC2 [12] it was 1880 nM.
Consider `CS(=O)(=O)CCNCc1ccc(-c2ccc3ncnc(Nc4ccc(OCc5cccc(F)c5)c(Cl)c4)c3c2)o1` [Lapatinib], for which the “relative IC50” value in the test on S462, in the test with HSC1 [1], in the test with S1507-2 [3], in the test with HS-PSS [11], with ST8814 [4] and with HS-Sch-2 was greater than 1000 nM in each case. The “relative IC50” value in the test on HSC2 [5], in the test on HSC1 [6], in the test with STS26T [7], in the test on S1507-2 [8], in the test on HS-PSS [9] and in the test with ST8814 [10] was greater than 1000 nM in each case. Besides, the “relative IC50” value in the test with HSC2 [12] is greater than 1000 nM.
Consider `COc1cc(F)c(F)c(Nc2ccc(I)cc2F)c1NS(=O)(=O)C1(C[C@H](O)CO)CC1` [Refametinib], for which the “relative IC50” value in the test on S462 came to 382 nM; in the test on HSC1 [1], 849 nM; in the test with STS26T [2], 306 nM; with S1507-2 [3], 362 nM; in the test with HS-PSS [11], 1800 nM; in the test on ST8814 [4], 451 nM. Moreover, the “relative IC50” value in the test on HS-Sch-2 was 1620 nM; in the test on HSC2 [5], 443 nM; in the test on HSC1 [6] it was greater than 10000 nM; in the test with S1507-2 [8], 1860 nM; in the test with HS-PSS [9], 3270 nM; with ST8814 [10], 1600 nM.
As for `CCN(CCO)CCCOc1ccc2c(Nc3cc(CC(=O)Nc4cccc(F)c4)[nH]n3)ncnc2c1` [AZD1152-HQPA], the “relative IC50” value in the test on S462 was 5.43 nM; with YST-1, 5.7 nM; in the test on HSC1 [1] it was 22.3 nM; in the test on STS26T [2], 85.6 nM; in the test with S1507-2 [3], 107 nM; in the test with ST8814 [4], 152 nM. Moreover, the “relative IC50” value was greater than 1000 nM in the test with HS-Sch-2; 35.2 nM with HSC2 [5]; greater than 1000 nM with HSC1 [6]; 161 nM with STS26T [7]; greater than 1000 nM in the test on S1507-2 [8]; greater than 1000 nM in the test with HS-PSS [9]. The “relative IC50” value in the test with ST8814 [10] was found to be 206 nM.
Turning to `Oc1ncc(N(CCCl)CCCl)c(O)n1` [Uracil mustard], the “relative IC50” value in the test on S462, with HSC1 [1], in the test with STS26T [2], in the test with S1507-2 [3], in the test on HSC2 [5] and in the test on HSC1 [6] was greater than 10000 nM each time. Besides, the “relative IC50” value with STS26T [7], with S1507-2 [8], in the test on ST8814 [10] and in the test on HSC2 [12] was greater than 10000 nM throughout.
